Values quoted from earlier work in patent publication US20200397720A1, “METHOD AND FORMULATION FOR TREATMENT OF WOUNDS BY NEW TISSUE REGENERATION WITH REDUCED TRAUMA AND SCAR TISSUE FORMATION” (priority 2019, published 2020).

Tested on: inflammatory cytokines, including IL-6 and TNF-α
Details: high fat diet-induced atherosclerosis in rabbits

In the case of `CC1=C(/C=C/C(C)=C/C=C/C(C)=C/C(=O)O)C(C)(C)CCC1` [ATRA, all-trans retinoic acid], the “effect on inflammatory cytokines, including IL-6 and TNF-α” value is given as “lowering inflammatory cytokines”.
